# Test results as given in ChEMBL document CHEMBL1141996, “cis-6-oxo-hexahydro-2-oxa-1,4-diazapentalene and cis-6-oxo-hexahydropyrrolo[3,2-c]pyrazole based scaffolds: design rationale, synthesis and cysteinyl proteinase inhibition” (Bioorg Med Chem Lett, 2005).
# Assays:
# [1] = Binding affinity against cathepsin B
# [2] = Binding affinity against cathepsin L
# Cysteine proteinase B = Cysteine proteinase B (Leishmania mexicana, UniProt P36400); assay: Binding affinity against Leishmania mexicana cysteine peptidase B (CPB)
# Cruzipain = Cruzipain (Trypanosoma cruzi, UniProt P25779); assay: Binding affinity against cruzaine
# Cathepsin K = biological target: T1, Cathepsin K (Homo sapiens, UniProt P43235); assay: Binding affinity against human cathepsin K
# T1 sequence (P43235 whole entry): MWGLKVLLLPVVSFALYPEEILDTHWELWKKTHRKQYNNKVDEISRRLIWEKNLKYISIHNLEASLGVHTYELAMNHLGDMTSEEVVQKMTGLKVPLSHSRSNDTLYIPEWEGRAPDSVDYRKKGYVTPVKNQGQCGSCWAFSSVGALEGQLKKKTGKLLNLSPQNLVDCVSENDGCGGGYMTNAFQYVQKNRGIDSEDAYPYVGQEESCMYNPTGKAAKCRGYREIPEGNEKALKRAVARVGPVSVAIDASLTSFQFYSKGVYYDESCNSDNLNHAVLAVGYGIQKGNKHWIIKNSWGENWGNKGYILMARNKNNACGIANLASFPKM
# Cathepsin S = Cathepsin S (Homo sapiens, UniProt P25774); assay: Binding affinity against cathepsin S
# Cathepsin S, sequence (P25774 whole entry): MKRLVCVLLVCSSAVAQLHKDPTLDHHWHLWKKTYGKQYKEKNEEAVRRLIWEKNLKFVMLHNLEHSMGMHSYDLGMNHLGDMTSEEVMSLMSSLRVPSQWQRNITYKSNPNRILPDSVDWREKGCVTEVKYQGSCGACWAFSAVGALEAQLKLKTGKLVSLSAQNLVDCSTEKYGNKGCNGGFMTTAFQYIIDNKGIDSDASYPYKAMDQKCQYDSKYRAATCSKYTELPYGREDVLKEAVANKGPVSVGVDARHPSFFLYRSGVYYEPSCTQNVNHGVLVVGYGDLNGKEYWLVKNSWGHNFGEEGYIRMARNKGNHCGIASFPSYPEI
# Cysteine proteinase B, sequence (P36400 whole entry): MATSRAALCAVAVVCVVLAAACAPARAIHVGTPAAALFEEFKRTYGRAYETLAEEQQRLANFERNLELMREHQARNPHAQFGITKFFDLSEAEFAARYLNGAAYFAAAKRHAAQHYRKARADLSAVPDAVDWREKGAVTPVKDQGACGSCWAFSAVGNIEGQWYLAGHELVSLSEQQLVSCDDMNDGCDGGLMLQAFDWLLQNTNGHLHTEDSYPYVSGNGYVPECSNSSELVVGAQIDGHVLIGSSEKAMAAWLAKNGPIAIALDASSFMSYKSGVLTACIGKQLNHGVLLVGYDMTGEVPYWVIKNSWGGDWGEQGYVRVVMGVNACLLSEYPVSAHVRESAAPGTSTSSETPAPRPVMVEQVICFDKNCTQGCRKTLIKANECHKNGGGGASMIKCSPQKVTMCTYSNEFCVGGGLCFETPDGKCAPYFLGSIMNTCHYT
# Cruzipain, sequence (P25779 whole entry): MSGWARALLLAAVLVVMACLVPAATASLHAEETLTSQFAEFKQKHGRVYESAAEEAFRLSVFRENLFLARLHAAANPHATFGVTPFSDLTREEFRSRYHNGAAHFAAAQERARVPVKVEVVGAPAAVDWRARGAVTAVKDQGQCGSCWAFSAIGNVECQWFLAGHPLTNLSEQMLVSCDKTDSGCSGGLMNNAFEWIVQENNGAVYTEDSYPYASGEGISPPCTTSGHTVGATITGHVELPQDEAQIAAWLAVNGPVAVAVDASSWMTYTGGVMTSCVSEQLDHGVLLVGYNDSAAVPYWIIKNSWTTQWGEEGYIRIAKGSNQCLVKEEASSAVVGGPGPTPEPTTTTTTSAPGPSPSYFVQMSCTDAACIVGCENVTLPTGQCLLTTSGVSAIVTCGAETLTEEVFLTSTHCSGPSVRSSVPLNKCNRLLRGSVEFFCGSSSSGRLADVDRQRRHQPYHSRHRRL
compound,measurement,setting,value
CC(C)C[C@H](NC(=O)c1ccc(C(C)(C)C)cc1)C(=O)N1NC[C@@H]2[C@H]1C(=O)CN2C(=O)c1ccccc1,Ki,[1],119 nM
same,Ki,[2],370 nM
same,Ki,Cysteine proteinase B,49.5 nM
same,Ki,Cruzipain,93.2 nM
same,Ki,Cathepsin K,3.5 nM
same,Ki,Cathepsin S,434 nM
CC(C)C[C@H](NC(=O)c1ccc(N(C)C)cc1)C(=O)N1CC[C@@H]2[C@H]1C(=O)CN2C(=O)c1ccccc1,Ki,[1],> 10000 nM
same,Ki,[2],1800 nM
same,Ki,Cysteine proteinase B,1170 nM
same,Ki,Cruzipain,600 nM
same,Ki,Cathepsin K,5.5 nM
same,Ki,Cathepsin S,> 3000 nM
CC(C)C[C@H](NC(=O)c1ccc(C(C)(C)C)cc1)C(=O)N1CC[C@@H]2[C@H]1C(=O)CN2C(=O)c1ccccc1,Ki,[1],> 10000 nM
same,Ki,[2],> 3500 nM
same,Ki,Cysteine proteinase B,691 nM
same,Ki,Cruzipain,173 nM
same,Ki,Cathepsin K,10.1 nM
same,Ki,Cathepsin S,> 4500 nM
CC(C)C[C@H](NC(=O)c1ccc(N(C)C)cc1)C(=O)N1OC[C@@H]2[C@H]1C(=O)CN2C(=O)c1ccccc1,Ki,[1],> 6000 nM
same,Ki,[2],> 4300 nM
same,Ki,Cysteine proteinase B,1000 nM
same,Ki,Cruzipain,2500 nM
same,Ki,Cathepsin K,40.1 nM
same,Ki,Cathepsin S,> 3000 nM
